Literature values as cited in patent publication US10702606B2, “Peptide composition” (MENICON CO., LTD., priority 2015, dated 2020).
Like-named read-outs stand apart in the source and are kept apart here.

pKa (25° C., only a pKa of 3.5 or more and less than 7.5 is described): 7.1
pKa (buffering agent, temperature not given): 7.1
Structure (SMILES): NCCN [Ethylenediamine, ethylenediamine]
